Activity calls are given as the source filed them. The rule behind the calls is not given here.
Each compound was assayed against AMP-activated protein kinase (AMPK) alpha-1/beta-1/gamma-1 (Homo sapiens) (UniProt P54619+Q9Y478+Q13131) (assay: Activation of AMPK alpha1/AMPKbeta1/AMPKgamma1 (unknown origin) using SAMS peptide as substrate assessed as relative enzyme activity at 10 uM incubated for 20 mins in presence of [gamma-32P]ATP by scintillation counter analysis). Conditions: filed as activator.
AMP-activated protein kinase (AMPK) alpha-1/beta-1/gamma-1 (Homo sapiens), sequence (P54619 whole entry): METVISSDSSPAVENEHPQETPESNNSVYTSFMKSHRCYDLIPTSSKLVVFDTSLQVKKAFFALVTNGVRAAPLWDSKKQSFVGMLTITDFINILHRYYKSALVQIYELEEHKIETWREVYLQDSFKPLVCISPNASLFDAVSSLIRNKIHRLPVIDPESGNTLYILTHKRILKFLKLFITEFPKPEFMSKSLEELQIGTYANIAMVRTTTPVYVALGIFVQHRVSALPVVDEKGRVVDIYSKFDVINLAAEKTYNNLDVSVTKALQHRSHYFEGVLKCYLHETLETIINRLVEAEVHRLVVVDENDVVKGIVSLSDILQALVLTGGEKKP
AMP-activated protein kinase (AMPK) alpha-1/beta-1/gamma-1 (Homo sapiens), sequence (Q13131 whole entry partner): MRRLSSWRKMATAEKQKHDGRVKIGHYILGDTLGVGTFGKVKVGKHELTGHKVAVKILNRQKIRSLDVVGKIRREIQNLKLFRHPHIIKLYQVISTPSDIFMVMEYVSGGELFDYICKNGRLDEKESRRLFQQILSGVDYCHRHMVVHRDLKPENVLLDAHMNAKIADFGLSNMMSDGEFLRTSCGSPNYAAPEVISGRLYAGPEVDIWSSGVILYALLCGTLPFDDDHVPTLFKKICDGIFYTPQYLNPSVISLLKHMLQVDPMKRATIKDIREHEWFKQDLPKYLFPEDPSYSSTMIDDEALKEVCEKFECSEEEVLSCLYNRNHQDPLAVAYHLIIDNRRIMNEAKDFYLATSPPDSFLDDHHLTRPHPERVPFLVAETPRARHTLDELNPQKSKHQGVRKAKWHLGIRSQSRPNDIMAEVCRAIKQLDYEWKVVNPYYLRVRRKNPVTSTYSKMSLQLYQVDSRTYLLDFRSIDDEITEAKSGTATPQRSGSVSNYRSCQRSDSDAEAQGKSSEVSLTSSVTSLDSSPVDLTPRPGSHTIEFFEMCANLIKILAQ
AMP-activated protein kinase (AMPK) alpha-1/beta-1/gamma-1 (Homo sapiens), sequence (Q9Y478 2-270 partner limits assumed): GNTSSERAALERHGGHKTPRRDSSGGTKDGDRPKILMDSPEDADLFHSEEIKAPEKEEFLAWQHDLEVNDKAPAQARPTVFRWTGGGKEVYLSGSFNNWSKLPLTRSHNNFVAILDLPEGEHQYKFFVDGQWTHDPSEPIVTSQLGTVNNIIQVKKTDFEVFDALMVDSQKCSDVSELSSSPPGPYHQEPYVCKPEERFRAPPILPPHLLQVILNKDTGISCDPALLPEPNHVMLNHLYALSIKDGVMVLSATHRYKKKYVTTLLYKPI
Type: protein-complex assay
Work on `CCOc1ncnc2c1ncn2[C@@H]1O[C@H](CO)[C@@H](O)[C@H]1O` yielded an Activity of 0.78.
`OC[C@H]1O[C@@H](n2cnc3c(N4CCC(O)CC4)ncnc32)[C@H](O)[C@@H]1O` showed an Activity of 1.16.
Compound `CCCCCCCCCC(=O)OC[C@H]1O[C@@H](n2cnc3c(NCc4ccc(O)c(OC)c4)ncnc32)[C@H](O)[C@@H]1O` has an Activity of 1.67.
Compound `OCCN(CCO)c1ncnc2c1ncn2[C@@H]1O[C@H](CO)[C@@H](O)[C@H]1O` has an Activity of 1.02.
`CC(=O)c1cccc(Nc2ncnc3c2ncn3[C@@H]2O[C@H](CO)[C@@H](O)[C@H]2O)c1` was tested, and the Activity was 0.62.
`OCCSc1ncnc2c1ncn2[C@@H]1O[C@H](CO)[C@@H](O)[C@H]1O` showed an Activity of 0.81.
With `CC(CO)(CO)Nc1ncnc2c1ncn2[C@@H]1O[C@H](CO)[C@@H](O)[C@H]1O` the Activity was 1.03.
`CC(=O)Nc1cccc(Nc2ncnc3c2ncn3[C@@H]2O[C@H](COC(C)=O)[C@@H](OC(C)=O)[C@H]2OC(C)=O)c1` showed an Activity of 0.86.
With `CCCCCCCC(=O)OC[C@H]1O[C@@H](n2cnc3c(NCc4ccc(O)cc4)ncnc32)[C@H](O)[C@@H]1O` the Activity was 2.04.
`COc1cccc(Nc2ncnc3c2ncn3[C@@H]2O[C@H](CO)[C@@H](O)[C@H]2O)c1` was tested, and the Activity was 0.75.
`OCCNc1ncnc2[nH]cnc12` showed an Activity of 0.99.
Work on `OC[C@H]1O[C@@H](n2cnc3c(Nc4cccc(F)c4)ncnc32)[C@H](O)[C@@H]1O` yielded an Activity of 0.53.
`O=C(/C=C/c1ccc(O)c(O)c1)OC[C@H]1O[C@@H](n2cnc3c(NCc4ccc(O)cc4)ncnc32)[C@H](O)[C@@H]1O` was tested, and the Activity was 0.37.
With `CC(=O)Nc1cccc(Nc2ncnc3c2ncn3[C@@H]2O[C@H](CO)[C@@H](O)[C@H]2O)c1` the Activity was 0.93.
For `Oc1ccc(CNc2ncnc3c2ncn3Cc2cccc(Cl)c2)cc1`, the Activity was 1.05.
In the case of `CCCCCCCCCC(=O)OC[C@H]1O[C@@H](n2cnc3c(NCc4ccc(O)cc4)ncnc32)[C@H](O)[C@@H]1O`, the Activity was 1.61.
For `CC(=O)CC(C)(C)n1cnc2c(NCc3ccc4c(c3)OCO4)ncnc21`, the Activity was 1.12.
Compound `COc1cccc(CNc2ncnc3c2ncn3C(C)(C)CC(C)=O)c1OC` has an Activity of 1.1.
Work on `CCOC(=O)c1cccc(Nc2ncnc3c2ncn3[C@@H]2O[C@H](CO)[C@@H](O)[C@H]2O)c1` yielded an Activity of 0.95.
With `OC[C@H]1O[C@@H](n2cnc3c(Nc4cccc(Cl)c4)ncnc32)[C@H](O)[C@@H]1O` the Activity was 0.82.
Compound `COc1ccc(CSc2ncnc3c2ncn3[C@@H]2O[C@H](CO)[C@@H](O)[C@H]2O)cc1` has an Activity of 0.82.
`CCCCCCCNc1ncnc2c1ncn2[C@@H]1O[C@H](CO)[C@@H](O)[C@H]1O` was tested, and the Activity was 0.62.

The compounds below were run on Syrian golden hamster (assay: Lipid lowering effect on high-fat diet-fed golden hamster assessed as decrease in TC level in liver administered orally once daily via gavage measured after 4 weeks). Conditions: Mesocricetus auratus, route po.
Type: functional, organism-based
`CC(C)OC(=O)C(C)(C)Oc1ccc(C(=O)c2ccc(Cl)cc2)cc1` was tested, and the Activity was “Active”.

The compounds below were run on Syrian golden hamster (assay: Effect on adipose tissue weight in high-fat diet-fed golden hamster administered orally once daily via gavage measured after 4 weeks). Conditions: Mesocricetus auratus, route po.
Type: functional, organism-based
With `CC(C)OC(=O)C(C)(C)Oc1ccc(C(=O)c2ccc(Cl)cc2)cc1` the Activity was “inactive”.

The compounds below were run on Mus musculus (assay: Lipid lowering effect on high-fat diet-fed Kunming mouse assessed as serum total cholesterol level at 130 mg/kg, po qd via gavage for 7 days consecutively (reference value: 159.3 +/- 11.5 mg/dl)). Conditions: time 7 day.
Type: functional
Work on `CC(C)(Sc1cc(C(C)(C)C)c(O)c(C(C)(C)C)c1)Sc1cc(C(C)(C)C)c(O)c(C(C)(C)C)c1` [PROBUCOL] yielded an Activity of 130 mg/dL.

These compounds were tested on Syrian golden hamster (assay: Lipid lowering effect on high-fat diet-fed golden hamster harboring LDLR-/- assessed as decrease in serum LDL-C level at 6 mg/kg, po qd administered via gavage measured after 8 weeks). Conditions: Mesocricetus auratus.
Type: functional, organism-based
With `CCC(C)(C)C(=O)O[C@H]1C[C@@H](C)C=C2C=C[C@H](C)[C@H](CC[C@@H]3C[C@@H](O)CC(=O)O3)[C@H]21` [SIMVASTATIN] the Activity was “Active”.

What follows are compounds tested on Syrian golden hamster (assay: Lipid lowering effect on high-fat diet-fed golden hamster assessed as decrease in TG level in liver administered orally once daily via gavage measured after 4 weeks). Conditions: Mesocricetus auratus, route po.
Type: functional, organism-based
`CC(C)OC(=O)C(C)(C)Oc1ccc(C(=O)c2ccc(Cl)cc2)cc1` was tested, and the Activity was “Active”.

The compounds below were run on Mus musculus (assay: Lipid lowering effect on high-fat diet-fed Kunming mouse assessed as serum total cholesterol level at 50 mg/kg, po qd via gavage for 7 days consecutively (reference value: 159.3 +/- 11.5 mg/dl)). Conditions: time 7 day.
Type: functional
`CCCCCCCCCC(=O)OC[C@H]1O[C@@H](n2cnc3c(NCc4ccc(O)c(OC)c4)ncnc32)[C@H](O)[C@@H]1O` was tested, and the Activity was 134.1 mg/dL.
Work on `CC(=O)c1cccc(Nc2ncnc3c2ncn3[C@@H]2O[C@H](CO)[C@@H](O)[C@H]2O)c1` yielded an Activity of 157.5 mg/dL.
In the case of `CCCCCCCC(=O)OC[C@H]1O[C@@H](n2cnc3c(NCc4ccc(O)cc4)ncnc32)[C@H](O)[C@@H]1O`, the Activity was 135 mg/dL.
For `COc1cccc(Nc2ncnc3c2ncn3[C@@H]2O[C@H](CO)[C@@H](O)[C@H]2O)c1`, the Activity was 138.1 mg/dL.
Compound `OC[C@H]1O[C@@H](n2cnc3c(Nc4cccc(F)c4)ncnc32)[C@H](O)[C@@H]1O` has an Activity of 152.7 mg/dL.
`O=C(/C=C/c1ccc(O)c(O)c1)OC[C@H]1O[C@@H](n2cnc3c(NCc4ccc(O)cc4)ncnc32)[C@H](O)[C@@H]1O` showed an Activity of 149.3 mg/dL.
In the case of `CC(=O)Nc1cccc(Nc2ncnc3c2ncn3[C@@H]2O[C@H](CO)[C@@H](O)[C@H]2O)c1`, the Activity was 154.7 mg/dL.
For `CCCCCCCCCC(=O)OC[C@H]1O[C@@H](n2cnc3c(NCc4ccc(O)cc4)ncnc32)[C@H](O)[C@@H]1O`, the Activity was 173.6 mg/dL.
With `CCOC(=O)c1cccc(Nc2ncnc3c2ncn3[C@@H]2O[C@H](CO)[C@@H](O)[C@H]2O)c1` the Activity was 153 mg/dL.
Work on `OC[C@H]1O[C@@H](n2cnc3c(Nc4cccc(Cl)c4)ncnc32)[C@H](O)[C@@H]1O` yielded an Activity of 153.1 mg/dL.

These compounds were tested on Syrian golden hamster (assay: Lipid lowering effect on high-fat diet-fed golden hamster harboring LDLR-/- assessed as decrease in serum TC level at 6 mg/kg, po qd administered via gavage measured after 8 weeks). Conditions: Mesocricetus auratus.
Type: functional, organism-based
In the case of `CCC(C)(C)C(=O)O[C@H]1C[C@@H](C)C=C2C=C[C@H](C)[C@H](CC[C@@H]3C[C@@H](O)CC(=O)O3)[C@H]21` [SIMVASTATIN], the Activity was “Active”.

These compounds were tested on Syrian golden hamster (assay: Lipid lowering effect on high-fat diet-fed golden hamster assessed as decrease in ALT level in liver administered orally once daily via gavage measured after 4 weeks). Conditions: Mesocricetus auratus, route po.
Type: functional, organism-based
`CC(C)OC(=O)C(C)(C)Oc1ccc(C(=O)c2ccc(Cl)cc2)cc1` was tested, and the Activity was “Active”.

What follows are compounds tested on Syrian golden hamster (assay: Effect on adipose tissue weight in high-fat diet-fed golden hamster at 6 mg/kg, po qd administered via gavage measured after 4 weeks). Conditions: Mesocricetus auratus.
Type: functional, organism-based
With `CCC(C)(C)C(=O)O[C@H]1C[C@@H](C)C=C2C=C[C@H](C)[C@H](CC[C@@H]3C[C@@H](O)CC(=O)O3)[C@H]21` [SIMVASTATIN] the Activity was “inactive”.

What follows are compounds tested on Syrian golden hamster (assay: Effect on serum TG level in high-fat diet-fed golden hamster harboring LDLR-/- at 6 mg/kg, po qd administered via gavage measured after 8 weeks). Conditions: Mesocricetus auratus.
Type: functional, organism-based
In the case of `CCC(C)(C)C(=O)O[C@H]1C[C@@H](C)C=C2C=C[C@H](C)[C@H](CC[C@@H]3C[C@@H](O)CC(=O)O3)[C@H]21` [SIMVASTATIN], the Activity was “inactive”.

What follows are compounds tested on Mus musculus (assay: Lipid lowering effect on high-fat diet-fed Kunming mouse assessed as serum total cholesterol level at 5 mg/kg, po qd via gavage for 7 days consecutively (reference value: 159.3 +/- 11.5 mg/dl)). Conditions: time 7 day.
Type: functional
`CCC(C)(C)C(=O)O[C@H]1C[C@@H](C)C=C2C=C[C@H](C)[C@H](CC[C@@H]3C[C@@H](O)CC(=O)O3)[C@H]21` [SIMVASTATIN] was tested, and the Activity was 129.4 mg/dL.

What follows are compounds tested on Syrian golden hamster (assay: Effect on liver weight in high-fat diet-fed golden hamster administered orally once daily via gavage measured after 4 weeks). Conditions: Mesocricetus auratus, route po.
Type: functional, organism-based
For `CC(C)OC(=O)C(C)(C)Oc1ccc(C(=O)c2ccc(Cl)cc2)cc1`, the Activity was “inactive”.

Source: ChEMBL document CHEMBL5506050, “Discovery of Oral AMP-Activated Protein Kinase Activators for Treating Hyperlipidemia” (J Med Chem, 2024)
